The source of these data is patent US6310067A, “Urocanic acid derivatives” (Senju Pharmaceutical Co., Ltd., priority 1998, dated 2001).

Read-outs that look alike come from different tables or passages of the source.

The subject of test [1] is rat type I allergy (PCA reaction). The test is described as follows: Rat type I allergy: passive anaphylaxis (PCA) reaction, oral administration. It is filed as in vivo, Male Wistar rats. To be noted: 100 mg/5 ml/kg oral, 60 min before PCA provocation; for Optical density: 625 nm, mean ± standard deviation, n = 5-6; for Inhibition rate (%): vs CMC-Na. As to the method:
The present compound was assessed for its effect on type I allergy through oral administration.
The compound of Example 1 100 mg/5 ml/kg
Male Wistar rats purchased from SLC Japan were used in the test.
The rats were intracutaneously injected in the back with 100 μl of antiserum (16-fold dilution) under pentobarbital anesthesia. Forty-eight hrs later, the animals were injected with 5 ml/kg of a mixture of ovalbumin (25 mg/kg) and Evans blue (12.5 mg/kg) to provoke passive anaphylaxis (PCA) reaction.
The rats were sacrificed 30 min after the provocation of PCA reaction and dye-infiltrated region of their back skin was cut out, the dye extracted with 5 ml of formamide and its optical density measured (625 nm).
Each of the test compounds was orally administered 60 min before the provocation of PCA reaction.

The test system of test [2] is type IV allergy (efferent phase), mouse contact-type dermatitis in auricles. Description: Type IV allergy (efferent phase), DNFB contact-type dermatitis in auricles. It is filed as in vivo, Male C57BL/6J mice. To be noted: n = 9-11, 1 hr before induction. The protocol: The present compound was assessed for its effect on type IV allergy (efferent phase) through oral and topical administrations, using a DNFB contact-type dermatitis model.
(§1) Male C57BL/6J mice purchased from Clea Japan, Inc. were used.
The mice which had their abdominal hair removed on the previous day were sensitized by applying to them on a 1-cm^2 area of their abdominal surface 25 μl of 0.5% dinitrofluorobenzene (DNFB) dissolved in acetone, under anesthesia with ketamine hydrochloride: xylazine hydrochloride (9:1). Five days after the sensitization procedure, 10 μl of 0.1% DNFB dissolved in acetone was applied to the outer side of their right auricles to induce infammation. Twenty-four hrs after the induction of inflammation, the thickness of the auricles was measured with a dial thickness gauge (manufactured by Ozaki Seisakusho) and the rate of edema calculated by comparing it with pre-induction thickness.
The test compounds were administered either orally or by topically applying 15 μl of its solution onto the outer side of the auricles, 1 hr before the induction.

Test [3] concerns type IV allergy (afferent phase), mouse contact-type dermatitis in auricles. Description: Type IV allergy (afferent phase), DNFB contact-type dermatitis in auricles, oral administration. It is filed as in vivo, Male C57BL/6J mice. The following applies: 30 mg/kg, 1 hr before sensitization, vs distilled water, n = 7-9. The protocol: The present compound was assessed for its effect on type IV allergy (afferent phase) through oral administrations, using a DNFB contact-type dermatitis model.
as §1
The test compounds were orally administered to the mice. One hr later, sensitization was performed by applying 30 μl of 0.5% DNFB acetone solution. Five days after the sensitization procedure, 10 μl of 0.1% DNFB dissolved in acetone was applied to their right auricles to induce contact-type dermatitis. Then, 24 hrs later, the thickness of the auricles was measured and the rate of edema calculated.

The subject of a further test is allergy. The following applies: background statement, cited from earlier work.
Where [4] appears, read: topical, concentration 0.2%, vs methanol.
[5] abbreviates: topical, concentration 0.5%, vs methanol.
Setting [6] is: Table 4, topically applied (as titled), concentration 0.5%, vs CMC-Na.

`COC(=O)C=Cc1cn(CCN2CCN(C(c3ccccc3)c3ccccc3)CC2)cn1` [Example 1, 1-(Diphenylmethylpiperazinylethyl)urocanic Acid Methyl Ester] yielded an Optical density in test [1] of 0.413 ± 0.051. The “Inhibition rate (%)” value came to 28.7% in test [1], 73.5% in test [2] (setting [4]), 83.9% in test [2] (setting [5]) and 47.8% in test [3].

Regarding `O=C(O)C=Cc1cn(CCN2CCN(C(c3ccccc3)c3ccccc3)CC2)cn1` [Example 2, 1-(Diphenylmethylpiperazinylethyl)urocanic Acid], the “Inhibition rate (%)” value in test [3] amounted to 56.2%.

For the compound `COC(=O)C=Cc1cn(-c2ccc(N)cc2)cn1` [Example 5, 1-(4-Aminophenyl)urocanic Acid Methyl Ester], in test [2] (setting [4]), the “Inhibition rate (%)” value turned out to be 99.9%.

Consider `COC(=O)C=Cc1cn(CCN2CCN(C(c3ccccc3)c3ccccn3)CC2)cn1` (stereo not shown) [Example 3, 1-[Phenyl(2-pyridyl)methylpiperazinylethyl]urocanic Acid Methyl Ester], for which the Optical density in test [1] is given as 0.409 ± 0.033. Besides, the “Inhibition rate (%)” value in test [1] worked out at 29.2%; in test [2] (setting [4]), 47.5%; in test [2] (setting [5]) it was 79.2%; in test [3], 49.5%.

For `O=C(O)/C=C/c1c[nH]cn1` [urocanic acid, Urocanic acid], the “effect on delayed allergy” value in the test with allergy (listed as Urocanic acid) is “suppressive effect on delayed allergy”; in the test with allergy, “by no means satisfactory”.

Take `COC(=O)C=Cc1cn(-c2nccs2)cn1` [Example 9, 1-(2,5-Thiazolyl)urocanic Acid Methyl Ester]: the “Inhibition rate (%)” value in test [2] (setting [6]) was 89.9%.

As for `COC(=O)C=Cc1cn(CC=Cc2ccccc2)cn1` [Example 17, 1-(3-Phenyl-2-propenyl)urocanic Acid Methyl Ester], in test [2] (setting [6]), the “Inhibition rate (%)” value stood at 70.5%.
